{
  "source": "patent US20210121486A1",
  "about": "“ANIMAL THERAPEUTIC AND FEED COMPOSITIONS AND METHODS OF USE” (Cadena Bio, Inc., priority 2015, published 2021)",
  "system": "common gut microbes",
  "assay": "Gut microbe growth on carbohydrate food sources (96-well carbohydrate array, A600 growth curves), whole panel",
  "assay_type": "cell-based",
  "conditions": "all of the gut microflora cultures, sole carbohydrate source, anaerobic, 37° C.",
  "description": "The ability of common gut microbes to grow on carbohydrate food sources was measured using a custom carbohydrate array constructed in a 96-well format. See for example, Martens E C, et al, “Recognition and Degradation of Plant Cell Wall Polysaccharides by Two Human Gut Symbionts,” PLOS Biology, volume 9, issue 12, page e1001221 (2011) and Martens E C, Chiang H C, Gordon J I, “Mucosal glycan foraging enhances fitness and transmission of a saccharolytic human gut bacterial symbiont.” Cell Host Microbe 4: 447-457 (2008). Each well of a flat bottom 96-well plate was loaded with 100 µL of each sterilized carbohydrate stock at 2× concentration.\nEach substrate was represented in […] on each assay plate in two non-adjacent wells. Two carbohydrate-free water wells were included as negative controls. […] Plates were then loaded into an automated plate handling device coupled to an absorbance reader. Absorbance at 600 nm (A600) was measured for each well at 10-15 min intervals. […]",
  "data": [
    {"molecule": "CC(=O)N[C@H]1C(O)O[C@H](CO)[C@@H](O)[C@@H]1O", "note": "(stereo partly shown) [N-acetylglucosamine]", "values": [
      {"measurement": "growth of the gut microflora cultures on the carbohydrate", "value": "grew well"}
    ]}
  ]
}
